As a reminder, the Ki is the equilibrium dissociation constant of an inhibitor or competing ligand from its target.

For test [1], the target named is D(2) dopamine receptor (Homo sapiens, UniProt P14416). The test can be described thus: Receptor Binding Test: 1. Experimental Materials:(1) D2 receptor Cell Transfection:This experiment utilizes the plasmid vector containing the gene of D2 receptor protein for transfecting HEK293 cells by calcium phosphate transfection method.
A short description of test [2]: Dopamine D3 Receptor Binding Test: The experiment is carried out by the method according to Journal of Pharmacology and Experimental Therapeutics 2010, 333(1): 328. With [3H]methyl-spiperone (0.3 nM) as the ligand and (+)-butaclamol (10 LM) for determining non-specific binding, binding tests are carried out on human recombinant D3 receptor (expressed in CHO cells). It is filed as cell-based.

Test [3] concerns the target T1, 5-hydroxytryptamine receptor 1A (Homo sapiens, UniProt P08908).
T1 sequence (P08908 whole entry): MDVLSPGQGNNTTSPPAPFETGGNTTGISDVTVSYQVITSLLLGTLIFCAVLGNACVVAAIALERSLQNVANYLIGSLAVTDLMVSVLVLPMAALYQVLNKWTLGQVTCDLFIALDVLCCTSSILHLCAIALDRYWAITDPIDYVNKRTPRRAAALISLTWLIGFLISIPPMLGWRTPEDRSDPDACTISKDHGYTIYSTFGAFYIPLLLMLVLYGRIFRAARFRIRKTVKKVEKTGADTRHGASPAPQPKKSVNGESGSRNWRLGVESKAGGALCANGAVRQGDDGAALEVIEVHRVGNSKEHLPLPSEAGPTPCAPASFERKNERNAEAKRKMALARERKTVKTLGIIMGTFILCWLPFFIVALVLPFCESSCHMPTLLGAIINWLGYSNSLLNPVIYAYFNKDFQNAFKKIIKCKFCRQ
Put plainly: 5-HT1A Receptor Binding Test: 1. Experimental Materials:The isotopic ligand of 5-H1A receptor […] (purchased from PE Corporation), (+)5-hydroxytryptamine (purchased from Sigma Corporation), GF/B glassfiber filter (purchased from Whatman Corporation), fat-soluble scintillation fluid: PPO and POPOP (purchased from Shanghai No. 1 Reagent Factory), toluene (purchased from Sinopharm Chemical Reagent Co., Ltd), and Tris (imported and subpackaged).Cells: HEK-293 cells stably expressing 5-HT1A receptors as obtained by gene recombination are cultured for 3-5 days in cell culture medium DMEM supplemented with 10% serum. […] Total binding tube […] 20 μL D1 Binding Buffer 20 μL Cells 160 μL Non-specific tube […] 20 μL 5-HT(10−4) 20 μL Cells 160 μL Tube with the […] 20 μL compound to be tested The compound to be tested 20 μL Cells 160 μL The components are mixed to homogeneity, and then the above tubes are transferred to water bath at 30° C. (1 h), removed into ice bath immediately, and suction filtered on Harvest (with ice cold Tris eluate for 5 times).

D(2) dopamine receptor, sequence (P14416 whole entry): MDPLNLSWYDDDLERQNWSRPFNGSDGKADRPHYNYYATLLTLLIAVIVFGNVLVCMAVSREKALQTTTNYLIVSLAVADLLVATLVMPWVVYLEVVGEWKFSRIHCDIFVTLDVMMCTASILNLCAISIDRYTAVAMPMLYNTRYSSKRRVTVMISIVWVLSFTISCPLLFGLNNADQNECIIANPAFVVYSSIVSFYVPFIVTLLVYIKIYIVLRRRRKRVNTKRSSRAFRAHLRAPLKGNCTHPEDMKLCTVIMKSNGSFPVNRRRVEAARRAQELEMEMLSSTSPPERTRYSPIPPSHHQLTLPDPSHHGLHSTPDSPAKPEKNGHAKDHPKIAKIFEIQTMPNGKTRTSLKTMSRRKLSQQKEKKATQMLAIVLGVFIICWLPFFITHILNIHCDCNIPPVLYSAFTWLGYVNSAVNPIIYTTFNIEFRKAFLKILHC

For the molecule `CCOC(=O)N[C@H]1CC[C@@H](CCN2CCN(c3nsc4ccccc34)CC2)CC1`, the inhibition constant (Ki) amounted to 1.97 nM in test [1], 0.46 nM in test [2] and 0.97 nM in test [3].
`CC(C)COC(=O)N[C@H]1CC[C@H](CCN2CCN(c3nsc4ccccc34)CC2)CC1`: the Ki in test [2] stood at 0.093 nM.
Turning to `O=C(N[C@H]1CC[C@H](CCN2CCN(c3nsc4ccccc34)CC2)CC1)Oc1ccc([N+](=O)[O-])cc1`, the inhibitory constant (Ki) in test [1] was 12.4 nM; in test [2] it was 7.12 nM.
On to `O=C(N[C@H]1CC[C@H](CCN2CCN(c3nsc4ccccc34)CC2)CC1)OCc1ccccc1`, for which the values for the inhibition constant Ki in test [1], in test [2] and in test [3] were 1.6 nM, 0.061 nM and 0.79 nM, respectively.
For `Cc1ccccc1OC(=O)N[C@H]1CC[C@H](CCN2CCN(c3nsc4ccccc34)CC2)CC1`, the inhibitory constant (Ki) in test [2] was found to be 8.49 nM.
Consider `COC(=O)N[C@H]1CC[C@@H](CCN2CCN(c3nsc4ccccc34)CC2)CC1`, for which the Ki amounted to 0.087 nM in test [2] and 2.55 nM in test [3].
Regarding `O=C(N[C@H]1CC[C@H](CCN2CCN(c3nsc4ccccc34)CC2)CC1)Oc1ccc(Cl)cc1`, the Ki in test [2] is 11.6 nM.
On to `O=C(N[C@H]1CC[C@H](CCN2CCN(c3nsc4ccccc34)CC2)CC1)OC1CC1`, for which the results for the Ki in test [1], in test [2] and in test [3] were 3.26 nM, 1.81 nM and 3.95 nM, respectively.
Regarding `O=C(N[C@H]1CC[C@H](CCN2CCN(c3nsc4ccccc34)CC2)CC1)Oc1ccccc1`, the Ki in test [2] is 0.74 nM.
As to `O=C(N[C@H]1CC[C@@H](CCN2CCN(c3nsc4ccccc34)CC2)CC1)OCc1ccccc1`, the Ki in test [1] amounted to 0.98 nM; in test [2] it was 1.03 nM; in test [3] it was 2.14 nM.
With `COc1cccc(OC(=O)N[C@H]2CC[C@H](CCN3CCN(c4nsc5ccccc45)CC3)CC2)c1`, the inhibition constant Ki in test [2] stood at 1.05 nM.
Take `O=C(N[C@H]1CC[C@H](CCN2CCN(c3nsc4ccccc34)CC2)CC1)OC1CCCCC1`: the inhibition constant Ki in test [1] amounted to 11.8 nM; in test [2], 4.3 nM; in test [3], 1.69 nM.
As to `COC(=O)N[C@H]1CC[C@H](CCN2CCN(c3nsc4ccccc34)CC2)CC1`, the Ki in test [2] was 0.1 nM.

These data come from ChEMBL document CHEMBL5725520, “Benzoisothiazole compounds and methods of treating schizophrenia” (2017).
